{"source": "paper PMC12074421", "about": "“Development and Characterization of pFluor50, a Fluorogenic-Based Kinetic Assay System for High-Throughput Inhibition Screening and Characterization of Time-Dependent Inhibition and Inhibition Type for Six Human CYPs” (Molecules, 2025)", "key": {"[1]": {"biological_target": "T1, CYP2B6 (Homo sapiens, UniProt P20813)", "T1 sequence (P20813 1-491)": "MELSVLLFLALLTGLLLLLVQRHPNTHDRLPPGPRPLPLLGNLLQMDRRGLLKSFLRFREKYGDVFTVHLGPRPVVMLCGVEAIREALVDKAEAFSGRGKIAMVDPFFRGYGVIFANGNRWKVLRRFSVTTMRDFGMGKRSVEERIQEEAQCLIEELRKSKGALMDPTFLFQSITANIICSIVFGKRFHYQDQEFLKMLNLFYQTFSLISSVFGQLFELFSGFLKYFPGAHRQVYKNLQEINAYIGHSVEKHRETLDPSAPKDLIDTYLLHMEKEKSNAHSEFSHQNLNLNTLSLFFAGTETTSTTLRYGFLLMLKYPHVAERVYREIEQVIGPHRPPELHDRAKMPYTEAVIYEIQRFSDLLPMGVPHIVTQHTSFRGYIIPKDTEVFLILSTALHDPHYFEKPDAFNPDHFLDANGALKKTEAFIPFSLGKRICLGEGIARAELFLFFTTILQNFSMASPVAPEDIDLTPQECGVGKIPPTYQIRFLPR", "assay": "pFluor50 Michaelis–Menten kinetics, CYP2B6 with Bzres", "assay_type": "in vitro ADME", "set-up": "purchased Sigma Aldrich (CYPexpress, Oxford Biomedical Research, Inc.) MTOXCE2B6", "description": "(§1) In general, the protocol for determination of the Michaelis–Menten kinetic parameters (KM and Vmax) involved addition of the appropriate master mix to phosphate buffer followed by addition of the appropriate amount of enzyme to the mix. The master mix was determined for each specific CPY450 based on empirical methods involving each reagent to obtain a linear range of enzyme activity. A total of 30 µL of this enzyme mix was then added to each well of the 384-well plate. Next, initial background readings were taken for 5 min, after which the appropriate amount of substrate was dispensed into each well using the onboard reagent dispenser of the plate reader. All plates contained one blank well without enzyme (only master mix) for each substrate concentration. […] Table 1 provides the formulation of the master mix for each CYP, the kinetic read time with substrate, the read time interval, the concentration range of the substrate used for the Michaelis–Menten kinetics, the Ex and Em wavelengths, and the concentration of substrate for inhibition/activation screening. Table S1 details the specific parameters used for the plate reader for each CYP–substrate pair.\nFor determining the Michaelis–Menten kinetic parameters (KM and Vmax) for each CYP–substrate pair, kinetic studies were performed in which a range of different concentrations of the substrate were used. Table 1 details the formulations for the master mix, CYPexpress^TM concentrations, and concentration ranges of each specific substrate. For each CYP–substrate pair, plate reader parameters were set up as described in Table S1. The protocol used for Michaelis–Menten kinetics was similar for all the CYPs. Briefly, the working solution was prepared for each substrate and then primed into one of the dispensers on the plate reader. The other dispenser was primed with the buffer solution. 1.5 mL of phosphate buffer solution (pH 7.4) was used to prepare the master mix with the appropriate concentration of each reagent as specified in Table 1 (NADPH, NADP+, G6P, G6PDH, and/or MgCl2). The amount of CYPexpress reagent in units/(mg/mL) was determined for each enzyme as new lots may have slightly different activities, and the activity of the reagent may change over time. The appropriate mass of each CYPexpress^TM reagent needed to obtain the required units was measured using an analytical balance and was transferred to the master mix solution. This solution was mixed, and 30 µL of the solution was added to each well using a multichannel pipette. In each case, a blank control well was also included, as described in Figure S1. The plate was then transferred to the plate reader and readings were taken at the time intervals, for the appropriate length of time, and at the appropriate wavelengths as specified in Table 1.\nCalibration curves were constructed using the determined plate reader settings (Figure S3) and concentrations of the products formed to allow for the calculation of product formation rates based on the observed fluorescence. For these calculations, we presumed that the total increase in observed fluorescence over time was due only to product formation. Calibration curves were generated with 6 different concentrations of the products (fluorescein and resorufin), which spanned the relative fluorescence units (RFU) observed during the kinetic experiments. This allowed for the calculation of product concentrations from the observed RFU, enabling the calculation of the product formation rates. Unfortunately, fluorescein benzyl ester (the product formed from the metabolism of dibenzyl fluorescein) is not commercially available. Therefore, the exact rate of formation could not be determined, and the Vmax for CYP3A4 cleavage of dibenzyl fluorescein has been reported as the rate of change in relative fluorescence units (RFUs) per minute."}, "[2]": {"biological_target": "T1, CYP2B6", "set-up": "purchased Sigma Aldrich (CYPexpress, Oxford Biomedical Research, Inc.) MTOXCE2B6; method as in PMID 17433521, PMID 9732386", "conditions": "read-out: Literature KM (converted), cited from earlier work"}, "[3]": {"biological_target": "T2, CYP3A4 (Homo sapiens, UniProt P08684)", "T2 sequence (P08684 2-503 limits assumed)": "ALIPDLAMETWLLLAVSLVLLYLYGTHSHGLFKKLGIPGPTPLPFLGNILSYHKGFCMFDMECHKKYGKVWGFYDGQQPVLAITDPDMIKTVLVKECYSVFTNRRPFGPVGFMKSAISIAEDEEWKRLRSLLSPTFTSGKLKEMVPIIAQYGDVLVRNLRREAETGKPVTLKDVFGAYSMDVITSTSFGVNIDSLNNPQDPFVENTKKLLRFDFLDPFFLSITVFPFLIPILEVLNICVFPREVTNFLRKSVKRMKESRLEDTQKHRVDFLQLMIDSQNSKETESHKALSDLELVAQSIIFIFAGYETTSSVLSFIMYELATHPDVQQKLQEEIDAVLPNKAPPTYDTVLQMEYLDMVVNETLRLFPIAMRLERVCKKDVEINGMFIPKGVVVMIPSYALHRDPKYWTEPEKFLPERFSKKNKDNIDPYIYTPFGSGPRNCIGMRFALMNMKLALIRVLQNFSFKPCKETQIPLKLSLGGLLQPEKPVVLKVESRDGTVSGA", "assay": "pFluor50 fluorogenic CYP3A4 inhibition (IC50, time dependence)"}, "[4]": {"biological_target": "T2, CYP3A4", "set-up": "purchased Sigma Aldrich (CYPexpress, Oxford Biomedical Research, Inc.) MTOXCE3A4", "conditions": "read-out: Literature IC50 (converted), cited from earlier work"}, "[5]": {"biological_target": "T2, CYP3A4", "set-up": "purchased Sigma Aldrich (CYPexpress, Oxford Biomedical Research, Inc.) MTOXCE3A4; method as in PMID 11095581, PMID 22252407", "conditions": "read-out: Literature KM (converted); cited from earlier work"}, "[6]": {"biological_target": "T2, CYP3A4", "assay": "pFluor50 Michaelis–Menten kinetics, CYP3A4 with DBF", "assay_type": "in vitro ADME", "set-up": "purchased Sigma Aldrich (CYPexpress, Oxford Biomedical Research, Inc.) MTOXCE3A4", "description": "as §1\nFor determining the Michaelis–Menten kinetic parameters (KM and Vmax) for each CYP–substrate pair, kinetic studies were performed in which a range of different concentrations of the substrate were used. Table 1 details the formulations for the master mix, CYPexpress^TM concentrations, and concentration ranges of each specific substrate. For each CYP–substrate pair, plate reader parameters were set up as described in Table S1. […] Briefly, the working solution was prepared for each substrate and then primed into one of the dispensers on the plate reader. […] The amount of CYPexpress reagent in units/(mg/mL) was determined for each enzyme as new lots may have slightly different activities, and the activity of the reagent may change over time. The appropriate mass of each CYPexpress^TM reagent needed to obtain the required units was measured using an analytical balance and was transferred to the master mix solution. […]"}, "[7]": {"biological_target": "T3, CYP2D6 (Homo sapiens, UniProt P10635)", "T3 sequence (P10635 whole entry)": "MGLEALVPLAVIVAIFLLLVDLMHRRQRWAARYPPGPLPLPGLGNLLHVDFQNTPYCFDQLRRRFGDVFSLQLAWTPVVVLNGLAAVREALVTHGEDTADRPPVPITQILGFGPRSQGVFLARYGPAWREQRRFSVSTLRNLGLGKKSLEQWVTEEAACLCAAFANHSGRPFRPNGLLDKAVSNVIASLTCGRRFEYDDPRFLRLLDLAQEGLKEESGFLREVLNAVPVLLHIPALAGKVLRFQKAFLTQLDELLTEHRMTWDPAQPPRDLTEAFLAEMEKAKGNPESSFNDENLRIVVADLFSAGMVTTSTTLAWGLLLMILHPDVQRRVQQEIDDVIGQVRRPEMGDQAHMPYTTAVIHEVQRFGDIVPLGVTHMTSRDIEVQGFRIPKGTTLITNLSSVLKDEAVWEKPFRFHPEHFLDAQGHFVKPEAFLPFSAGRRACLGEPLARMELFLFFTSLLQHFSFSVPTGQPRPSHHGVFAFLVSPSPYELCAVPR", "assay": "biochemical"}, "[8]": {"biological_target": "T1, CYP2B6", "set-up": "purchased Sigma Aldrich (CYPexpress, Oxford Biomedical Research, Inc.) MTOXCE2B6", "conditions": "read-out: Literature IC50 (converted), cited from earlier work"}, "[9]": {"biological_target": "T1, CYP2B6", "assay": "pFluor50 fluorogenic CYP2B6 inhibition (IC50, time dependence)", "conditions": "30 µM inhibitor, pre-incubation between 5 and 30 min", "protocol": "(§2) Therefore, the pre-incubation time between the inhibitor and the CYP was first optimized prior to the full IC50 determinations. […] Therefore, a 10 min pre-incubation time was selected for convenience. […] Therefore, the sertraline pre-incubation time for the inhibition assay was optimized to 30 min (the time at which inhibition was no longer time-dependent)."}, "[10]": {"biological_target": "T1, CYP2B6", "assay": "biochemical", "protocol": "as §2"}, "[11]": {"biological_target": "T3, CYP2D6", "set-up": "purchased Sigma Aldrich (CYPexpress, Oxford Biomedical Research, Inc.) MTOXCE2D6", "conditions": "CYP2D6, Bufuralol/LC-MS/MS; read-out: Literature IC50 (converted); cited from earlier work"}, "[12]": {"biological_target": "T3, CYP2D6", "assay": "pFluor50 fluorogenic CYP2D6 inhibition (IC50, time dependence)", "conditions": "30 µM inhibitor, pre-incubation between 5 and 30 min"}, "[13]": {"biological_target": "CYP2C9 (Homo sapiens, UniProt P11712)", "sequence (P11712 whole entry)": "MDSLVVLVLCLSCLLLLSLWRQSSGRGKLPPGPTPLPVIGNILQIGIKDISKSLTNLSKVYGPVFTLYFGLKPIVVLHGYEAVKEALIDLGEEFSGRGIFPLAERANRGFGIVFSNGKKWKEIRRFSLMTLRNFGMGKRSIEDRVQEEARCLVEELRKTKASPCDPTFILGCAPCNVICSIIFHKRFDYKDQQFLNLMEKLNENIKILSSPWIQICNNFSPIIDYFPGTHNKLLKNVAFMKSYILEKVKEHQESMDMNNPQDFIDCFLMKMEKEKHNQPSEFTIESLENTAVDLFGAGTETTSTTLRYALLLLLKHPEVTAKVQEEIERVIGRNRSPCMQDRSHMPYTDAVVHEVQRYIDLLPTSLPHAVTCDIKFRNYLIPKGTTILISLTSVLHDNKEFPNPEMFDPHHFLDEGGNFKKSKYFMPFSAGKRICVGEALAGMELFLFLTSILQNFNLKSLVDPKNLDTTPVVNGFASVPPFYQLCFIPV", "conditions": "substrate Eres, model comparison by Akaike's Information Criterion"}}, "note": "“And” between values parts separate entries of the source, which are not always exact repeats. Equal values may be shown once. “Also recorded” adds a separate entry of the source. Where a name gives a salt, the structure may show the parent alone. Read-outs that look alike come from different tables or passages of the source.", "data": [{"smiles": "O=c1ccc2nc3ccc(OCc4ccccc4)cc3oc-2c1", "note": "[Bzres, 7-(benzyloxy)-3H-phenoxazin-3-one]", "values": [{"measurement": "Average Vmax", "setting": "[1]; CYP2B6 1 mg/mL, rate of product formation", "value": "0.33 ± 0.1", "unit": "nmol/min"}, {"measurement": "Km", "setting": "[1]; CYP2B6 1 mg/mL, three biological replicates, read-out: Average KM", "value": "40.6 ± 19.6", "unit": "µM"}, {"measurement": "Average Vmax", "setting": "[1]; CYP2B6, Table S3", "value": "0.3343 ± 0.1111", "unit": "nmol/min"}, {"measurement": "Vmax – repeat 1", "setting": "[1]; CYP2B6, biological repeat 1", "value": 276.3, "unit": "pmol/min"}, {"measurement": "Vmax – repeat 2", "setting": "[1]; CYP2B6, biological repeat 2", "value": 264.2, "unit": "pmol/min"}, {"measurement": "Vmax – repeat 3", "setting": "[1]; CYP2B6, biological repeat 3", "value": 462.4, "unit": "pmol/min"}, {"measurement": "Km", "setting": "[1]; human, CYPexpress CYP2B6 enzyme reagent, pH 7.4, CYP2B6 1 mg/mL, three biological replicates, read-out: Average KM", "value": "40.6 ± 19.6", "unit": "µM"}, {"measurement": "Km", "setting": "[1]; human, CYPexpress CYP2B6 enzyme reagent, pH 7.4, CYP2B6, biological repeat 1, read-out: KM – repeat 1", "value": 33, "unit": "µM"}, {"measurement": "Km", "setting": "[1]; human, CYPexpress CYP2B6 enzyme reagent, pH 7.4, CYP2B6, biological repeat 2, read-out: KM – repeat 2", "value": 25.9, "unit": "µM"}, {"measurement": "Km", "setting": "[1]; human, CYPexpress CYP2B6 enzyme reagent, pH 7.4, CYP2B6, biological repeat 3, read-out: KM – repeat 3", "value": 62.9, "unit": "µM"}, {"measurement": "Km", "setting": "[2]; CYP2B6, human Bl cell", "value": 1.3, "unit": "µM"}, {"measurement": "Km", "setting": "[2]; CYP2B6", "value": "34 ± 10.4", "unit": "µM"}]}, {"smiles": "Cc1ccc(-c2c(-c3nn(C)c4ncnc(N5CC[C@H](N6CCCCC6)C5)c34)cnn2C)cc1", "note": "[CYP3cide]", "values": [{"measurement": "Time dependence of CYP3A4 inhibition", "setting": "[3]; 0.05 µM inhibitor, pre-incubation between 5 and 30 min", "value": "time-dependent manner; also recorded: increase with time"}, {"measurement": "IC50", "setting": "[3]; read-out: Average IC50, CYP3A4, DBF 4 µM, 5 min pre-incubation, DMSO 0.5%", "value": "126 ± 66.2", "unit": "nM"}, {"measurement": "IC50", "setting": "[3]; read-out: IC50 (nM)– repeat 1, CYP3A4, biological repeat 1", "value": 108, "unit": "nM"}, {"measurement": "IC50", "setting": "[3]; read-out: IC50 (nM)– repeat 2, CYP3A4, biological repeat 2", "value": 200, "unit": "nM"}, {"measurement": "IC50", "setting": "[3]; read-out: IC50 (nM)– repeat 3, CYP3A4, biological repeat 3", "value": 70.8, "unit": "nM"}, {"measurement": "IC50", "setting": "[4]; CYP3A4, Midazolam/LC-MS/MS", "value": "300 ± 20", "unit": "nM"}, {"measurement": "IC50", "setting": "[4]; CYP3A4, Testosterone/LC-MS/MS", "value": 690, "unit": "nM"}]}, {"smiles": "O=C(OCc1ccccc1)c1ccccc1-c1c2ccc(=O)cc-2oc2cc(OCc3ccccc3)ccc12", "note": "[DBF, benzyl 2-(6-(benzyloxy)-3-oxo-3H-xanthen-9-yl)benzoate]", "values": [{"measurement": "Km", "setting": "[5]", "value": "0.87 µM and 1.37 µM"}, {"measurement": "Vmax – repeat 1", "setting": "[6]; CYP3A4, biological repeat 1", "value": 92.28, "unit": "RFU/min"}, {"measurement": "Vmax – repeat 2", "setting": "[6]; CYP3A4, biological repeat 2", "value": 104.6, "unit": "RFU/min"}, {"measurement": "Vmax – repeat 3", "setting": "[6]; CYP3A4, biological repeat 3", "value": 76.71, "unit": "RFU/min"}]}, {"smiles": "CN[C@H]1CC[C@@H](c2ccc(Cl)c(Cl)c2)c2ccccc21", "note": "[Sertraline, sertraline hydrochloride]", "values": [{"measurement": "IC50", "setting": "[7]", "value": "5790 nM and 3220 nM and 4240 nM and 4420 nM"}, {"measurement": "IC50", "setting": "[8]; CYP2B6, Bupropion/LC-MS/MS, ref 52", "value": "200 ± 24", "unit": "nM"}, {"measurement": "IC50", "setting": "[8]; CYP2B6, Bupropion/LC-MS/MS, ref 54", "value": 1430, "unit": "nM"}, {"measurement": "IC50", "setting": "[8]; CYP2B6, HLM, Bupropion/LC-MS/MS", "value": 3200, "unit": "nM"}, {"measurement": "Time dependence of CYP2B6 inhibition", "setting": "[9]", "value": "increases with time; also recorded: time-dependent manner"}, {"measurement": "IC50", "setting": "[10]", "value": "385 nM and 1390 nM and 477 nM and 752 nM"}, {"measurement": "IC50", "setting": "[11]", "value": 2000, "unit": "nM"}, {"measurement": "Time dependence of CYP2D6 inhibition", "setting": "[12]", "value": "time-dependent manner; also recorded: increase in inhibition with time"}]}, {"smiles": "Nc1ccc(S(=O)(=O)Nc2ccnn2-c2ccccc2)cc1", "note": "[Sulfaphenazole, sulfaphenazole]", "values": [{"measurement": "Type of inhibition of CYP2C9", "setting": "[13]", "value": "competitive inhibition"}]}]}
